Experimental data reported in patent US5541162A, “Glutathione derivatives” (Senju Pharmaceutical Co., Ltd., priority 1990, dated 1996).

Key:
[1] = system: rat back passive anaphylactic reaction; assay: Effect on rat back passive anaphylactic reaction; format: in vivo; details: male Wistar rats; for % Inhibition (passive anaphylactic reaction): 30 mg/kg i.v., vs physiological saline control; for Absorbance (extracted Evans blue dye), mean ± S.E.: 30 mg/kg into caudal vein 1 minute before antigen, dye extracted after 30 minutes, n=5
Procedure: Method: Male Wistar rats (body weight about 130 g) purchased from Shizuoka Laboratory Animal Center were used as test animals. The back hair of each rat was clipped off and the antiserum was injected intradermally at the back. After 3 days, the test substance 30 mg/kg was injected into the caudal vein (control: physiological saline). One minute later, 1 ml of a 50:50 mixture of 1% egg white albumin and 2% Evans blue in physiological saline was intravenously administered as the antigen to induce a passive anaphylactic reaction. After 30 minutes, the rat was sacrificed, the stained area of the rat back was isolated the dye was extracted with 10 ml of formamide to determine the amount of the dye.

[2] = system: carrageenin-induced conjunctival edema; assay: Effect on carrageenin-induced conjunctival edema; format: in vivo, rat; details: male Wistar rats; for % Inhibition (conjunctival edema): 30 mg/kg i.v., vs physiological saline control; for Conjunctival edema weight (mg ± S.E): test substance 30 mg/5 ml/kg i.v. 1 minute before subconjunctival 1% carrageenin, n=10
Procedure: Method: Male Wistar rats (body weight about 120 g) purchased from Shizuoka Laboratory Animal Center were used as test animals. Each animal was anesthesized with pentobarbital 6 mg/kg i.p. and a solution of the test substance in physiological saline was intravenously administered (30 mg/5 ml/kg). After 1 minute, 50 μl of a 1% solution of carrageenin in physiological saline was injected subconjunctivally. After 3 minutes, the rat was sacrificed and the carrageenin-induced conjunctival edema was weighed.

[3] = system: acetaminophen-induced liver damage; assay: Effect on acetaminophen-induced liver damage; format: in vivo, rat; details: for s-GOT, mean ± S.E. / s-GPT, mean ± S.E. / s-GOT percent inhibition (figure in parentheses) / s-GPT percent inhibition (figure in parentheses): male SD rats; for s-GOT, mean ± S.E. / s-GPT, mean ± S.E.: 0.5 mmole/kg orally 1 hour before acetaminophen 300 mg/kg i.p., serum after 24 hours; for s-GOT percent inhibition (figure in parentheses) / s-GPT percent inhibition (figure in parentheses): vs physiological saline control
Procedure: Method: Male SD rats (body weights about 180 g) purchased from Shizuoka Laboratory Animal Center were used as test animals. The test substance was orally administered (0.5 mmole/kg), and after 1 hour, acetaminophen 300 mg/kg was intraperitoneally administered. After 24 hours, the blood was drawn from the abdominal aorta of each rat and the serum was separated and determined for s-GOT and GPT.

Compound | % Inhibition (passive anaphylactic reaction) [1] [%] | Absorbance (extracted Evans blue dye), mean ± S.E. [1] | % Inhibition (conjunctival edema) [2] [%] | Conjunctival edema weight (mg ± S.E) [2] [mg] | s-GOT, mean ± S.E. [3] | s-GPT, mean ± S.E. [3] | s-GOT percent inhibition (figure in parentheses) ([3]; 0.5 mmole/kg orally) [%] | s-GPT percent inhibition (figure in parentheses) ([3]; 0.5 mmole/kg orally) [%] | Efficacy on acetaminophen-induced liver damage (in words) ([3]; 0.5 mmole/kg orally, rats)
CC(C)OC(=O)CNC(=O)[C@H](CSC1CC(=O)NC1=O)NC(=O)CC[C@H](N)C(=O)O (stereo partly drawn) [R1 = C3 H7, R2 R3 = NH, S-[(1,2-Dicarboximido)ethyl]glutathione isopropyl ester] | 26.5 | 0.642 ± 0.141 | 21.4 | 62.0 ± 1.6 |  |  |  |  | 
CCCCOC(=O)CC(SC[C@H](NC(=O)CC[C@H](N)C(=O)O)C(=O)NCC(=O)OC(C)C)C(=O)OCCCC (stereo partly drawn) [R1 = C3 H7, R2 = R3 = OC4 H9, S-(1,2-Dicarbo-n-butoxyethyl)glutathione isopropyl ester] | 43.6 | 0.492 ± 0.094 | 1.9 | 77.4 ± 4.0 | 178 ± 64 | 45 ± 11 | 95.9 | 96.8 | 
N[C@@H](CCC(=O)N[C@@H](CSC1CC(=O)NC1=O)C(=O)NCC(=O)O)C(=O)O (stereo partly drawn) [R1 = H, R2 R3 = NH, S-[(1,2-Dicarboximido)ethyl]glutathione] | 47.4 | 0.459 ± 0.104 | 9.9 | 63.9 ± 4.1 | 1288 ± 316 | 351 ± 82 | 54.0 | 50.1 | 
S-[1-(or 2)Carboxy-2-(or 1)carbamoylethyl]glutathione | 43.4 | 0.494 ± 0.066 | 9.6 | 64.1 ± 4.2 |  |  |  |  | 
NC(=O)CC(SC[C@H](NC(=O)CC[C@H](N)C(=O)O)C(=O)NCC(=O)O)C(N)=O (stereo partly drawn) [R1 = H, R2 = R3 = NH2, S-(1,2-Dicarbamoylethyl)glutathione] | 35.3 | 0.565 ± 0.162 | 5.4 | 67.1 ± 3.8 | 591 ± 155 | 147 ± 48 | 78.9 | 79.1 | 
CC(C)OC(=O)CNC(=O)[C@H](CSC(CC(N)=O)C(N)=O)NC(=O)CC[C@H](N)C(=O)O (stereo partly drawn) [R1 = C3 H7, R2 = R3 = NH2, S-(1,2-Dicarbamoylethyl)glutathioneisopropyl ester] | 43.6 | 0.492 ± 0.083 | 26.2 | 58.2 ± 1.4 | 1760 ± 911 | 740 ± 394 | 59.8 | 46.7 | 
S-(1,2-Dicarboxyethyl)glutathioneisopropyl ester [R1 = C3 H7, R2 = R3 = OH] | 47.7 | 0.457 ± 0.055 | 19.0 | 63.9 ± 3.6 | 929 ± 500 | 404 ± 278 | 78.8 | 70.9 | 
CCN1C(=O)CC(SC[C@H](NC(=O)CC[C@H](N)C(=O)O)C(=O)NCC(=O)O)C1=O (stereo partly drawn) [R1 = H, R2 R3 = N--C2 H5, S-[N-Ethyl-2,5-dioxopyrrolidin-3-yl]glutathione] | 41.1 | 0.514 ± 0.050 | 9.9 | 63.9 ± 3.6 |  |  |  |  | 
CCOC(=O)CC(SC[C@H](NC(=O)CC[C@H](N)C(=O)O)C(=O)NCC(=O)OC(C)C)C(=O)OCC (stereo partly drawn) [R1 = C3 H7, R2 = R3 = OC2 H5, γ-L-Glutamyl-[S-(1,2-dicarbethoxyethyl)]-L-cystinylglycine isopropyl ester] | 44.6 | 0.484 ± 0.093 | 23.7 | 60.2 ± 1.2 | 394 ± 178 | 111 ± 51 | 91.0 | 92.0 | 
CCCCOC(=O)CC(CSC[C@H](NC(=O)CC[C@H](N)C(=O)O)C(=O)NCC(=O)OC(C)C)C(=O)OCCCC (stereo partly drawn) [R1 = C3 H7, R2 = R3 = C4 H9, S-(2,3-Dicarbo-n-butoxypropyl)glutathione isopropyl ester] |  |  |  |  | 309 ± 105 | 86 ± 31 | 88.4 | 70.9 | significant effect
